Tested on: rodent lifetime carcinogenesis bioassay, tumor incidence TD50
Assay: chronic cancer bioassays in animals – CPDB, compiled studies (AID 1745844)
Details: rat, strain Fischer 344, in feed

SMILES: Nc1c(Br)cc(Br)c2c1C(=O)c1ccccc1C2=O
- TD50 (females, site: liver, lesion: hepatocholangiocarcinoma, dosed 103 weeks, study length 104 weeks): 566 mg/kg/day
- TD50 (females, site: rectum, lesion: adenocarcinoma, dosed 103 weeks, study length 104 weeks): 420 mg/kg/day
- TD50 (females, site: rectum, lesion: polypoid adenoma, dosed 40 weeks, study length 66 weeks): 217 mg/kg/day
- TD50 (females, site: rectum, lesion: polypoid adenoma, dosed 103 weeks, study length 104 weeks): 74 mg/kg/day
- TD50 (females, site: skin, lesion: squamous-cell papilloma, dosed 103 weeks, study length 104 weeks): 2600 mg/kg/day
- TD50 (females, site: urinary bladder, lesion: transitional-cell carcinoma + transitional-cell papilloma + transitional epithelium, squamous-cell carcinoma + transitional ep, dosed 66 weeks, study length 66 weeks): 2190 mg/kg/day
- TD50 (females, site: urinary bladder, lesion: transitional-cell carcinoma + transitional-cell papilloma + transitional epithelium, squamous-cell carcinoma + transitional ep, dosed 103 weeks, study length 104 weeks): 304 mg/kg/day
- TD50 (females, site: urinary bladder, lesion: transitional-cell carcinoma, dosed 66 weeks, study length 66 weeks): 4830 mg/kg/day
- TD50 (females, site: urinary bladder, lesion: transitional-cell carcinoma, dosed 103 weeks, study length 104 weeks): 656 mg/kg/day
- TD50 (females, site: urinary bladder, lesion: transitional-cell papilloma, dosed 103 weeks, study length 104 weeks): 782 mg/kg/day
- TD50 (males, site: any site (literature study), lesion: several types, types named in the paper, dosed 39 weeks, study length 66 weeks): 123 mg/kg/day
- TD50 (males, site: any site (literature study), lesion: several types, types named in the paper, dosed 66 weeks, study length 66 weeks): 193 mg/kg/day
- TD50 (males, site: any site (literature study), lesion: several types, types named in the paper, dosed 103 weeks, study length 104 weeks): 130 mg/kg/day
- TD50 (males, site: colon + kidney + liver + rectum + urinary bladder, lesion: adenocarcinoma + polypoid adenoma + tubule adenoma + tubule carcinoma + hepatocholangiocarcinoma + hepatocellular adenoma + hepatoce, dosed 103 weeks, study length 104 weeks): 54.6 mg/kg/day
- TD50 (males, site: colon + rectum, lesion: adenocarcinoma, dosed 66 weeks, study length 66 weeks): 1870 mg/kg/day
- TD50 (males, site: colon + rectum, lesion: adenocarcinoma, dosed 103 weeks, study length 104 weeks): 320 mg/kg/day
- TD50 (males, site: colon + rectum, lesion: polypoid adenoma, dosed 39 weeks, study length 66 weeks): 297 mg/kg/day
- TD50 (males, site: colon + rectum, lesion: polypoid adenoma, dosed 66 weeks, study length 66 weeks): 426 mg/kg/day
- TD50 (males, site: colon + rectum, lesion: polypoid adenoma, dosed 103 weeks, study length 104 weeks): 64.3 mg/kg/day
- TD50 (males, site: colon, lesion: adenocarcinoma, dosed 103 weeks, study length 104 weeks): 2010 mg/kg/day
- TD50 (males, site: colon, lesion: polypoid adenoma, dosed 103 weeks, study length 104 weeks): 1660 mg/kg/day
- TD50 (males, site: kidney, lesion: tubule adenoma + tubule carcinoma, dosed 39 weeks, study length 66 weeks): 239 mg/kg/day
- TD50 (males, site: kidney, lesion: tubule adenoma + tubule carcinoma, dosed 66 weeks, study length 66 weeks): 1770 mg/kg/day
- TD50 (males, site: kidney, lesion: tubule adenoma + tubule carcinoma, dosed 103 weeks, study length 104 weeks): 264 mg/kg/day
- TD50 (males, site: kidney, lesion: tubule adenoma, dosed 39 weeks, study length 66 weeks): 239 mg/kg/day
- TD50 (males, site: kidney, lesion: tubule adenoma, dosed 66 weeks, study length 66 weeks): 1770 mg/kg/day
- TD50 (males, site: kidney, lesion: tubule adenoma, dosed 103 weeks, study length 104 weeks): 292 mg/kg/day
- TD50 (males, site: liver, lesion: hepatocellular adenoma + hepatoblastoma + hepatocellular carcinoma, dosed 39 weeks, study length 66 weeks): 70.3 mg/kg/day
- TD50 (males, site: liver, lesion: hepatocellular adenoma + hepatoblastoma + hepatocellular carcinoma, dosed 66 weeks, study length 66 weeks): 102 mg/kg/day
- TD50 (males, site: liver, lesion: hepatocellular adenoma + hepatoblastoma + hepatocellular carcinoma, dosed 103 weeks, study length 104 weeks): 53.8 mg/kg/day
- TD50 (males, site: liver, lesion: hepatocellular adenoma + hepatocellular carcinoma, dosed 39 weeks, study length 66 weeks): 70.3 mg/kg/day
- TD50 (males, site: liver, lesion: hepatocellular adenoma + hepatocellular carcinoma, dosed 66 weeks, study length 66 weeks): 102 mg/kg/day
- TD50 (males, site: liver, lesion: hepatocellular adenoma + hepatocellular carcinoma, dosed 103 weeks, study length 104 weeks): 53.8 mg/kg/day
- TD50 (males, site: liver, lesion: hepatocellular adenoma, dosed 39 weeks, study length 66 weeks): 97.8 mg/kg/day
- TD50 (males, site: liver, lesion: hepatocellular adenoma, dosed 66 weeks, study length 66 weeks): 386 mg/kg/day
- TD50 (males, site: liver, lesion: hepatocellular adenoma, dosed 103 weeks, study length 104 weeks): 71.4 mg/kg/day
- TD50 (males, site: liver, lesion: hepatocellular carcinoma, dosed 39 weeks, study length 66 weeks): 95.8 mg/kg/day
- TD50 (males, site: liver, lesion: hepatocellular carcinoma, dosed 66 weeks, study length 66 weeks): 114 mg/kg/day
- TD50 (males, site: liver, lesion: hepatocellular carcinoma, dosed 103 weeks, study length 104 weeks): 59.6 mg/kg/day
- TD50 (males, site: liver, lesion: hepatocholangiocarcinoma, dosed 39 weeks, study length 66 weeks): 1240 mg/kg/day
- TD50 (males, site: liver, lesion: hepatocholangiocarcinoma, dosed 103 weeks, study length 104 weeks): 1230 mg/kg/day
- TD50 (males, site: lung, lesion: alveolar/bronchiolar adenoma + alveolar/bronchiolar carcinoma, dosed 103 weeks, study length 104 weeks): 794 mg/kg/day
- TD50 (males, site: lung, lesion: alveolar/bronchiolar adenoma, dosed 103 weeks, study length 104 weeks): 1290 mg/kg/day
- TD50 (males, site: rectum, lesion: adenocarcinoma, dosed 103 weeks, study length 104 weeks): 363 mg/kg/day
- TD50 (males, site: rectum, lesion: polypoid adenoma, dosed 39 weeks, study length 66 weeks): 297 mg/kg/day
- TD50 (males, site: rectum, lesion: polypoid adenoma, dosed 66 weeks, study length 66 weeks): 426 mg/kg/day
- TD50 (males, site: rectum, lesion: polypoid adenoma, dosed 103 weeks, study length 104 weeks): 64.3 mg/kg/day
- TD50 (males, site: testis, lesion: interstitial-cell adenoma, bilateral + interstitial-cell adenoma, dosed 103 weeks, study length 104 weeks): 133 mg/kg/day
- TD50 (males, site: urinary bladder, lesion: transitional-cell carcinoma + transitional-cell papilloma, dosed 66 weeks, study length 66 weeks): 3640 mg/kg/day
- TD50 (males, site: urinary bladder, lesion: transitional-cell carcinoma + transitional-cell papilloma, dosed 103 weeks, study length 104 weeks): 564 mg/kg/day
- TD50 (males, site: urinary bladder, lesion: transitional-cell carcinoma, dosed 66 weeks, study length 66 weeks): 3640 mg/kg/day
- TD50 (males, site: urinary bladder, lesion: transitional-cell carcinoma, dosed 103 weeks, study length 104 weeks): 1790 mg/kg/day
- TD50 (males, site: urinary bladder, lesion: transitional-cell papilloma, dosed 103 weeks, study length 104 weeks): 846 mg/kg/day
